Legend:
[1] = Celltiter Glo viability assay, HEK293; assay type: cell-based; settings: human, HEK293 cells; HEK293, 72 h of compound exposure; read-out: Cytotoxicity Assay Mean EC50
Text: (§1) The HTS approach using the bioluminescent N-linked glycosylation reporter (CCR 2011) in D54-ERLucT and D54-LucT cells has been previously described (Bennett, et al., Transl Oncol 2013, 6, 382-391). Briefly, the primary cell-based screen detects site occupancy of NLG sequons using a modified luciferase protein translated into the ER. […] The methodology for the primary (D54-ERlucT), secondary (D54-LucT), and tertiary (luciferase inhibition) screens as well and toxicity assays with CelltitreGlo are deposited in Pubchem (AID 588693).
(§2) To better understand the connection between structure and activity, analogs were prepared and tested in the D54-ERLucT cell based assay for inhibition of N-linked glycosylation (FIG. 1B). The assay was used to estimate and compare AC40 values among analogs and to guide the design of improved compounds that inhibited N-linked glycosylation. This effort generated 36 unique compounds with modifications to the amine component of the sulfonamide functionality (red), the pyrrolidine moiety (blue) or the methylaminothiazole group (green). Generally, incorporation of larger sulfonamides (i.e., larger secondary amines appended to the sulphone) was not well tolerated, resulting in erosion of potency (7 analogs). However, steric interactions could be mitigated by the introduction of a hydrogen bond accepting oxygen in a larger cyclic amine. Thus, morpholine was determined to be an acceptable surrogate for the dimethylamine component of the sulfonamide (FIGS. 1A-1D). The pyrrolidine group (blue) was replaced with various alkyl, cycloalkyl, and amine groups (7 compounds). The aminothiazole moiety was derivatized most extensively of all three regions (green highlighted area, 22 analogs). […] Analogs with the highest potency in the luciferase assay were retested with western blot analysis to insure that measurements of luciferase activation corresponded to loss of N-linked glycosylation.

HEK293 cells = experiment: Celltiter Glo viability assay, HEK293; assay type: cell-based; settings: HEK293 EC50 over NLG AC40
Text: as §1, §2

[2] = Celltiter Glo viability assay, HepG2; assay type: cell-based; settings: human, HepG2 cells; HEPG2, 72 h of compound exposure; read-out: Cytotoxicity Assay Mean EC50
Text: as §1, §2

HepG2 cells = experiment: Celltiter Glo viability assay, HepG2; assay type: cell-based; settings: HEPG2 EC50 over NLG AC40
Text: as §1, §2

N-linked glycosylation = experiment: D54-ERLucT cell based luciferase assay for inhibition of N-linked glycosylation; settings: D54-ERLucT cells, luciferase activation
Text: as §1
The primary screen was developed in the D54 glioma cell line using a modified P. pyralis luciferase gene (ER-LucT) that is ER translated and glycosylated at three N-linked glycosylation consensus sequences. Glycosylation of the reporter inactivates luciferase enzymatic activity providing a robust methodology to detect inhibition of this process. D54 cells expressing a non-ER translated luciferase (LucT) insensitive to inhibition of N-linked glycoysation were used as a secondary screen for false positives. The primary screen was performed in duplicate and values were normalized to the average of positive control wells (Tunicamycin) minus averaged neutral vehicle treated wells per run. Compounds with replicate activity greater than three standard deviations above the mean average of control wells were selected for further study. A subset of 1,845 compounds met this criterion, and were advanced to simultaneous retesting in both the primary screen and a secondary (false positive) cell-based screen. […] Compounds were further triaged from consideration by consulting the Pubchem bioassay database and deprioritizing compounds showing a promiscuity rate higher than 5% across assays or by removing PAINS scaffolds (Baell, et al., J Med Chem 2010, 53, 2719-2740). Remaining compounds were assessed by medicinal chemistry review to score synthetic tractability and known issues with instability, poor solubility, or toxicity. This analysis yielded 39 compounds that were tested in a cell-free assay to detect luciferase inhibitors (Auld, et al., Proc Natl Acad Sci USA 2010, 107, 4878-4883) and by western blot analysis to detect gel mobility changes of the luciferase reporter, consistent with inhibition of N-linked glycosylation. This approach identified one aminobenzamidosulfonamide compound that blocked N-linked glycosylation.
as §2

Q: What does the source list for `COc1ccc2nc(NC(=O)c3cc(S(=O)(=O)N(C)C)ccc3N3CCCC3)sc2c1` [Entry 9, 5-(dimethylsulfamoyl)-N-(6-methoxy-1,3-benzothiazol-2-yl)-2-pyrrolidin-1-ylbenzamide]?
A: EC50 at 72 h [1]: > 30 µM; Selectivity (EC50/AC40) (HEK293 cells): >2.3; EC50 at 72 h [2]: > 30 µM; Selectivity (EC50/AC40) (HepG2 cells): >2.3; NLG Inhibition ASSAY Potency Mean AC40 (N-linked glycosylation): 13.1 µM; NLG Inhibition max act, % (N-linked glycosylation): 85.7%

Q: With `CN(C)S(=O)(=O)c1ccc(N2CCCC2)c(C(=O)Nc2cccnc2)c1` [Entry 10, 5-(dimethylsulfamoyl)-N-pyridin-3-yl-2-pyrrolidin-1-ylbenzamide] as the compound, how does the EC50 at 72 h [1] read?
A: > 30 µM

Q: And the EC50 at 72 h [2]?
A: > 30 µM

Q: What about the “NLG Inhibition max act, %” value (N-linked glycosylation) of the same compound?
A: 48.4%

Q: With `CN(C)S(=O)(=O)c1ccc(N2CCCC2)c(C(=O)Nc2ccncc2)c1` [Entry 11, 5-(dimethylsulfamoyl)-N-pyridin-4-yl-2-pyrrolidin-1-ylbenzamide] as the compound, how does the EC50 at 72 h [1] read?
A: > 30 µM

Q: And the EC50 at 72 h [2]?
A: > 30 µM

Q: And the “NLG Inhibition max act, %” value (N-linked glycosylation)?
A: 25%

Q: With `CN(C)S(=O)(=O)c1ccc(N2CCCC2)c(C(=O)Nc2ccccc2)c1` [Entry 12, 5-(dimethylsulfamoyl)-N-phenyl-2-pyrrolidin-1-ylbenzamide] as the compound, how does the EC50 at 72 h [1] read?
A: > 30 µM

Q: And the “Selectivity (EC50/AC40)” value (HEK293 cells)?
A: >27.8

Q: And the EC50 at 72 h [2]?
A: > 30 µM

Q: What about the “Selectivity (EC50/AC40)” value (HepG2 cells) of the same compound?
A: >27.8

Q: What about the “NLG Inhibition ASSAY Potency Mean AC40” value (N-linked glycosylation) of the same compound?
A: 1.1 µM

Q: What about the “NLG Inhibition max act, %” value (N-linked glycosylation) of the same compound?
A: 183.0%

Q: What does the source list for `Cc1ccccc1NC(=O)c1cc(S(=O)(=O)N(C)C)ccc1N1CCCC1` [Entry 13, 5-(dimethylsulfamoyl)-N-(2-methylphenyl)-2-pyrrolidin-1-ylbenzamide]?
A: EC50 at 72 h [1]: > 30 µM; EC50 at 72 h [2]: > 30 µM; NLG Inhibition max act, % (N-linked glycosylation): 10.7%

Q: With `Cc1ccc(NC(=O)c2cc(S(=O)(=O)N(C)C)ccc2N2CCCC2)cc1` [Entry 14, 5-(dimethylsulfamoyl)-N-(4-methylphenyl)-2-pyrrolidin-1-ylbenzamide] as the compound, how does the EC50 at 72 h [1] read?
A: > 30 µM

Q: What about the “Selectivity (EC50/AC40)” value (HEK293 cells) of the same compound?
A: >25.0

Q: What about the EC50 at 72 h [2] of the same compound?
A: > 30 µM

Q: And the “Selectivity (EC50/AC40)” value (HepG2 cells)?
A: >25.0

Q: And the “NLG Inhibition ASSAY Potency Mean AC40” value (N-linked glycosylation)?
A: 1.2 µM

Q: What about the “NLG Inhibition max act, %” value (N-linked glycosylation) of the same compound?
A: 305.0%

Q: Which results are given for `COc1ccccc1NC(=O)c1cc(S(=O)(=O)N(C)C)ccc1N1CCCC1` [Entry 15, 5-(dimethylsulfamoyl)-N-(2-methoxyphenyl)-2-pyrrolidin-1-ylbenzamide]?
A: EC50 at 72 h [1]: > 30 µM; EC50 at 72 h [2]: > 30 µM; NLG Inhibition max act, % (N-linked glycosylation): 30.1%

Q: What does the source list for `COc1ccc(NC(=O)c2cc(S(=O)(=O)N(C)C)ccc2N2CCCC2)cc1` [Entry 16, 5-(dimethylsulfamoyl)-N-(4-methoxyphenyl)-2-pyrrolidin-1-ylbenzamide]?
A: EC50 at 72 h [1]: > 30 µM; Selectivity (EC50/AC40) (HEK293 cells): >2.9; EC50 at 72 h [2]: > 30 µM; Selectivity (EC50/AC40) (HepG2 cells): >2.9; NLG Inhibition ASSAY Potency Mean AC40 (N-linked glycosylation): 10.3 µM; NLG Inhibition max act, % (N-linked glycosylation): 79.9%

Q: What does the source list for `CN(C)S(=O)(=O)c1ccc(N2CCCC2)c(C(=O)Nc2ccccc2F)c1` [Entry 17, 5-(dimethylsulfamoyl)-N-(2-fluorophenyl)-2-pyrrolidin-1-ylbenzamide]?
A: EC50 at 72 h [1]: > 30 µM; EC50 at 72 h [2]: > 30 µM

Q: For `CN(C)S(=O)(=O)c1ccc(N2CCCC2)c(C(=O)Nc2cccc(F)c2)c1` [Entry 18, 5-(dimethylsulfamoyl)-N-(3-fluorophenyl)-2-pyrrolidin-1-ylbenzamide], which EC50 at 72 h [1] is on record?
A: > 30 µM

Q: And the “Selectivity (EC50/AC40)” value (HEK293 cells)?
A: >11.5

Q: And the EC50 at 72 h [2]?
A: > 30 µM

Q: What about the “Selectivity (EC50/AC40)” value (HepG2 cells) of the same compound?
A: >11.5

Q: What about the “NLG Inhibition ASSAY Potency Mean AC40” value (N-linked glycosylation) of the same compound?
A: 2.6 µM

Q: And the “NLG Inhibition max act, %” value (N-linked glycosylation)?
A: 107.7%

Q: With `CN(C)S(=O)(=O)c1ccc(N2CCCC2)c(C(=O)Nc2ccccc2Cl)c1` [Entry 19, 5-(dimethylsulfamoyl)-N-(2-chlorophenyl)-2-pyrrolidin-1-ylbenzamide] as the compound, how does the EC50 at 72 h [1] read?
A: > 30 µM

Q: And the EC50 at 72 h [2]?
A: > 30 µM

Q: What about the “NLG Inhibition max act, %” value (N-linked glycosylation) of the same compound?
A: 24.7%

Q: What does the source list for `CN(C)S(=O)(=O)c1ccc(N2CCCC2)c(C(=O)Nc2ccc(Br)cc2)c1` [Entry 20, 5-(dimethylsulfamoyl)-N-(4-bromophenyl)-2-pyrrolidin-1-ylbenzamide]?
A: EC50 at 72 h [1]: > 30 µM; EC50 at 72 h [2]: > 30 µM; NLG Inhibition max act, % (N-linked glycosylation): 32%

Q: Which EC50 at 72 h [1] does the source give for `CN(C)S(=O)(=O)c1ccc(N2CCCC2)c(C(=O)N2CCOCC2)c1` [Entry 21, N,N-Dimethyl-3-(morpholine-4-carbonyl)-4-(pyrrolidin-1-yl)benzenesulfonamide] here?
A: > 30 µM

Q: What about the EC50 at 72 h [2] of the same compound?
A: > 30 µM

Q: What about the “NLG Inhibition max act, %” value (N-linked glycosylation) of the same compound?
A: 23.6%

Q: For `CN(C)S(=O)(=O)c1ccc(N2CCCC2)c(C(=O)NC2CCCCC2)c1` [Entry 22, N-cyclohexyl-5-(dimethylsulfamoyl)-2-pyrrolidin-1-ylbenzamide], which EC50 at 72 h [1] is on record?
A: > 30 µM

Q: And the EC50 at 72 h [2]?
A: > 30 µM

Q: Which results are given for `CN(C)C(=O)c1cc(S(=O)(=O)N(C)C)ccc1N1CCCC1` [Entry 23, 5-(dimethylsulfamoyl)-N,N-dimethyl-2-pyrrolidin-1-ylbenzamide]?
A: EC50 at 72 h [1]: > 30 µM; EC50 at 72 h [2]: > 30 µM; NLG Inhibition max act, % (N-linked glycosylation): 32.1%

Reference: patent US11219625B2, “Inhibitors of N-linked glycosylation and methods using same” (YALE UNIVERSITY, priority 2015, dated 2022)
